From patent US11633379B2, “Methods of inhibiting PCSK9” (TRUSTEES OF DARTMOUTH COLLEGE, priority 2017, dated 2023)

How the values were obtained:
[1] = system: 4000 most abundant proteins in HepG2 cells; experiment: Shotgun proteomics of HepG2 cells; format: cell-based, human; details: 5 μM, FIGS. 8A-8B
Experimental: To study whether 34 affect total protein levels in hepG2 in an unbiased analysis we used 1×10^6 HepG2 cells in 6-well culture plates, followed by incubation with media+0.1% DMSO or DMSO or with increasing concentration (2.5-10 μM) of 34 in 0.1% DMSO for 24 hours. After 24 hours media was aspirated, cells were washed with HBSS followed by shotgun proteomics analysis of the most abundant ˜4000 cellular proteins. Spectral count for each protein was compared between untreated (0.1% DMSO) to treated (34 at 5 μM) samples.

LDLR [2] = experiment: Hepatic LDLR levels in mice (western blot); format: in vivo; details: livers on day 5 after daily oral 100 mg/kg/day, FIG. 14B
Experimental: 2) Daily dosage experiments: mice were administered daily oral gavage with 200 μl of 34 (100 mg/kg) in 0.1% Tween80+1% hydroxyethyl cellulose (HEC) in buffered (PBS pH7.4) solution. 50-70 μl of blood was collected from the retro-orbital plexus on day 3 and day 5 after 34 administration, on day 5 mice were euthanized and liver were collected and analyzed as mentioned below under the “Liver analyses” section. Blood was left to clot at room temperature for 20 min, followed by serum separation (spin at 1000 g for 10 min). Serum was analyzed as described below: Hepatic LDLR levels—To study whether 34 affect hepatic LDLR levels we used 10 mg of PBS-flushed livers. Livers were minced and proteins were extracted using available RIPA buffer (SIGMA-ALDRICH, catalog #20-188). Protein extracts (5 μgr) were used for immunodetection of intracellular LDLR (western blot analysis) with a commercially available primary antibody against LDLR (ABCAM, catalog #14056), HRP-conjugated secondary antibody (ABCAM, catalog #97135) visualized using an enhanced chemiluminescence (ECL) solution (Cumaric acid, Luminol and hydrogen peroxide), developed in a LiCore imager.

apoE mRNA = experiment: apoE transcription, HepG2 (real-time PCR); format: cell-based, human; details: HepG2, FIG. 7B
From the text: , cells were washed with HBSS followed by RNA extraction kit (RNeasy, QIAGEN cat #74-104). mRNA was reversed transcribed to cDNA using commercially available kit (ThermoFisher, cat #4368814) and analyzed using real-time PCR for apoE transcript levels using the relative expression method known as delta-delta CT.

HepG2 cells [3] = experiment: LDL-cholesterol uptake in HepG2 cells (3H-cholesterol); format: cell-based, human; details: 10 uM for 24 hours, FIG. 16
Experimental: To determine whether Compound 34 increases LDL-cholesterol uptake, LDL was isolated from human plasma using ultracentrifugation and the cholesterol content of the particle was radiolabeled with 3H-cholesterol. Hepatoma cells (HepG2) were cultured (0.25×10^6 cell/well in a 24-well plate) with or without 10 uM of B004 (compound 34) for 24 hours in DMEM. Radiolabeled LDL-cholesterol (LDL-c) was added to the cells for 4 hours. Cells were washed 3 times with PBS and left to air dry. 500 μl of isopropanol was added to each well and incubate with shaking at room temperature for 3 hours in a sealed container. 50 μl of the isopropanol was placed into a scintillation vial together with 4.5 ml of scintillation liquid cocktail (Scintiverse BD). 3H-cholesterol levels were read using a beta emission radioactive counter.

HepG2 cells [4] = experiment: Cell survival, MTT assay; format: cell-based, human
Experimental: To study the effect of the compound on cell viability we used 1.25×10^5 HepG2 cells in 96-well culture plates, followed by incubation with media only, media+0.1% DMSO or Media+5 uM of 31/33/34/35 in 0.1% DMSO or with increasing concentration (0.2-50 μM) of 34 in 0.1% DMSO for 40 hours followed by a viability assay knows as MTT. The MTT assay is a colorimetric assay for assessing cell metabolic activity. NAD(P)H-dependent cellular oxidoreductase enzymes may, reflects the number of viable cells present. These enzymes are capable of reducing the tetrazolium dye MTT 3-(4,5-dimethylthiazol-2-yl)-2,5-diphenyltetrazolium bromide to its insoluble formazan, which has a purple color. Tetrazolium dye assays (commonalty known as the MTT assay) is used to measure cytotoxicity (loss of viable cells).

PCSK9 = experiment: Basal_PCSK9 HepG2, primary SP and CRC (secreted PCSK9, ELISA); format: cell-based, human
Experimental: To study the effect of the compounds on PCSK9 secretion we used 1×10^6 HepG2 cells in 6-well culture plates, followed by incubation with media only, media+0.1% DMSO or Media+5 uM of 31/33/34/35 in 0.1% DMSO and collection of 50 ul of media at 8, 16, 24 and 40 hours or incubation with increasing concentration (0.2-50 μM) of 34 in 0.1% DMSO for 24 hours and collection of 50 ul of media. The collected media was analyzed for PCSK9 levels using commercially available ELISA kit (MBL-international, catalog # CY-8079) following the manufacturer instruction.
The below data (Table 2) was generated using the assays as discussed in Examples 1-2. Blanks mean no testing was performed. […] For the SP assays, the higher the number, the higher the inhibition, e.g., the better the activity of the compound. Compounds with a determined IC50 are particularly active, the IC50 values were determined via dose response curve (under the heading CRC which stands for concentration response curve aka dose response curve).

apoE = apoE secretion, HepG2 (ELISA); format: cell-based, human; details: HepG2, FIG. 7A
Experimental: The collected media was analyzed for apoE levels using commercially available ELISA kit (ABCAM, catalog #108813) following the manufacturer instruction.

LDLR [5] = experiment: LDLR levels in HepG2 cells (western blot); format: cell-based, human; details: 5 μM, FIG. 3
From the text: Protein extracts (IMO were used for immunodetection of intracellular LDLR (western blot analysis) with a commercially available primary antibody against LDLR (ABCAM, catalog #14056), HRP-conjugated secondary antibody (ABCAM, catalog #97135) visualized using an enhanced chemiluminescence (ECL) solution (Cumaric acid, Luminol and hydrogen peroxide), developed in a LiCore imager. See FIG. 3.

## CC(=O)Oc1ccc(C2CC3(CCCCC3)c3c2[nH]c2ccccc32)cc1 (stereo not shown) [Compound 34]
[1]
  levels of the 4000 most abundant proteins: does not affect the levels of the 4000 most abundant proteins in HepG2 cells
LDLR [2]
  increase in hepatic LDLR: 16.2%
apoE mRNA
  apoE mRNA levels: no changes in secreted, intracellular, or mRNA levels of apoE
HepG2 cells [3]
  LDL-cholesterol uptake: increases LDL-cholesterol uptake in HepG2 cells
HepG2 cells [4]; 20 μM and 50 μM, HepG2, FIG. 4B
  cell death: increased cell death
HepG2 cells [4]; concentrations up to 5 μM, FIGS. 4A-4B
  HepG2 cell survival (MTT): does not affect HepG2 cell survival at concentrations up to 5 μM
PCSK9; 5 μM, HepG2, single point
  Primary SP Basal_PCSK9 HepG2 SP % Inhib @ 5 μM: 5.2%
PCSK9; 5 μM, HepG2 cells, FIGS. 2A-2B
  accumulation of PCSK9 in culture media: significantly reduced accumulation of PCSK9 in culture media in a time-dependent and concentration-dependent manner
PCSK9; 50 μM, HepG2, single point
  Primary SP Basal_PCSK9 HepG2 SP % Inhib @ 50 μM: 100.1%
PCSK9; HepG2, concentration response curve
  IC50: 3.5 µM
PCSK9; summary of Table 2 data
  activity rating in words (PCSK9 inhibition, Table 2): particularly strongly active
apoE
  secreted apoE levels: no changes in secreted, intracellular, or mRNA levels of apoE
LDLR [5]
  increase in LDLR protein levels: 21%
